Assay results from ChEMBL document CHEMBL5634115, “Exploring novel anticancer pyrazole benzenesulfonamides featuring tail approach strategy as carbonic anhydrase inhibitors” (Eur J Med Chem, 2023).

How the values were obtained:
Experiment in all cases: cells
SK-OV-3 [1] = format: functional; settings: Homo sapiens, time 48 hrs
Description: Cytostatic activity against human SK-OV-3 cells assessed as total growth inhibition measured after 48 hrs by sulforhodamine B assay

SR = format: functional; settings: Homo sapiens, time 48 hrs
Description: Cytostatic activity against human SR cells assessed as total growth inhibition measured after 48 hrs by sulforhodamine B assay

SN12C = format: functional; settings: Homo sapiens, time 48 hrs
Description: Cytostatic activity against human SN12C cells assessed as total growth inhibition measured after 48 hrs by sulforhodamine B assay

OVCAR-5 [2] = format: functional; settings: Homo sapiens, time 48 hrs
Description: Cytostatic activity against human OVCAR-5 cells assessed as total growth inhibition measured after 48 hrs by sulforhodamine B assay

HCT-116 [3] = settings: Homo sapiens, HCT-116, 48 h, read-out: LC50
Description: Cytotoxicity activity against human HCT-116 cells assessed as reduction in cell growth measured after 48 hrs by sulforhodamine B assay

HOP-62 = format: functional; settings: Homo sapiens, time 48 hrs
Description: Cytostatic activity against human HOP-62 cells assessed as total growth inhibition measured after 48 hrs by sulforhodamine B assay

MCF7 = format: functional; settings: Homo sapiens, time 48 hrs
Description: Growth inhibition of human MCF7 cells measured after 48 hrs by sulforhodamine B assay

MDA-MB-231 [4] = settings: Homo sapiens, MDA-MB-231, 48 h, read-out: LC50
Description: Cytotoxicity activity against human MDA-MB-231 cells assessed as reduction in cell growth measured after 48 hrs by sulforhodamine B assay

SW-620 [5] = settings: Homo sapiens, SW-620, 48 h, read-out: LC50
Description: Cytotoxicity activity against human SW620 cells assessed as reduction in cell growth measured after 48 hrs by sulforhodamine B assay

HCT-116 [6] = format: functional; settings: Homo sapiens, time 48 hrs
Description: Cytostatic activity against human HCT-116 cells assessed as total growth inhibition measured after 48 hrs by sulforhodamine B assay

MDA-MB-231 [7] = format: functional; settings: Homo sapiens, time 48 hrs
Description: Cytostatic activity against human MDA-MB-231 cells assessed as total growth inhibition measured after 48 hrs by sulforhodamine B assay

TK-10 [8] = format: functional; settings: Homo sapiens, time 48 hrs
Description: Growth inhibition of human TK-10 cells measured after 48 hrs by sulforhodamine B assay

IGROV-1 [9] = format: functional; settings: Homo sapiens, time 48 hrs
Description: Cytostatic activity against human IGROV-1 cells assessed as total growth inhibition measured after 48 hrs by sulforhodamine B assay

KM12 [10] = format: functional; settings: Homo sapiens, time 48 hrs
Description: Growth inhibition of human KM12 cells measured after 48 hrs by sulforhodamine B assay

SK-MEL-5 [11] = format: functional; settings: Homo sapiens, time 48 hrs
Description: Growth inhibition of human SK-MEL-5 cells measured after 48 hrs by sulforhodamine B assay

MDA-MB-231 [12] = format: functional; settings: Homo sapiens, time 48 hrs; remark: listed apart in the source
Description: Growth inhibition of human MDA-MB-231 cells measured after 48 hrs by sulforhodamine B assay

DU-145 = settings: Homo sapiens, DU-145, 48 h, read-out: LC50
Description: Cytotoxicity activity against human DU-145 cells assessed as reduction in cell growth measured after 48 hrs by sulforhodamine B assay

SK-MEL-5 [13] = format: functional; settings: Homo sapiens, time 48 hrs; remark: listed apart in the source
Description: Cytostatic activity against human SK-MEL-5 cells assessed as total growth inhibition measured after 48 hrs by sulforhodamine B assay

UACC-257 = format: functional; settings: Homo sapiens, time 48 hrs
Description: Cytostatic activity against human UACC-257 cells assessed as total growth inhibition measured after 48 hrs by sulforhodamine B assay

SF-268 = format: functional; settings: Homo sapiens, time 48 hrs
Description: Cytostatic activity against human SF-268 cells assessed as total growth inhibition measured after 48 hrs by sulforhodamine B assay

HCC 2998 = format: functional; settings: Homo sapiens, time 48 hrs
Description: Cytostatic activity against human HCC 2998 cells assessed as total growth inhibition measured after 48 hrs by sulforhodamine B assay

NCI-H522 [14] = settings: Homo sapiens, NCI-H522, 48 h, read-out: LC50
Description: Cytotoxicity activity against human NCI-H522 cells assessed as reduction in cell growth measured after 48 hrs by sulforhodamine B assay

U-251 = format: functional; settings: Homo sapiens, time 48 hrs
Description: Growth inhibition of human U-251 cells measured after 48 hrs by sulforhodamine B assay

K562 = settings: Homo sapiens, K562, 48 h, read-out: LC50
Description: Cytotoxicity activity against human K562 cells assessed as reduction in cell growth measured after 48 hrs by sulforhodamine B assay

SNB-75 = format: functional; settings: Homo sapiens, time 48 hrs
Description: Growth inhibition of human SNB-75 cells measured after 48 hrs by sulforhodamine B assay

NCI-H23 = format: functional; settings: Homo sapiens, time 48 hrs
Description: Cytostatic activity against human NCI-H23 cells assessed as total growth inhibition measured after 48 hrs by sulforhodamine B assay

A498 = format: functional; settings: Homo sapiens, time 48 hrs
Description: Cytostatic activity against human A498 cells assessed as total growth inhibition measured after 48 hrs by sulforhodamine B assay

OVCAR-3 = format: functional; settings: Homo sapiens, time 48 hrs
Description: Cytostatic activity against human OVCAR-3 cells assessed as total growth inhibition measured after 48 hrs by sulforhodamine B assay

RPMI-8226 = format: functional; settings: Homo sapiens, time 48 hrs
Description: Growth inhibition of human RPMI-8226 cells measured after 48 hrs by sulforhodamine B assay

Malme-3M [15] = settings: Homo sapiens, 48 h, read-out: LC50
Description: Cytotoxicity activity against human Malme-3M cells assessed as reduction in cell growth measured after 48 hrs by sulforhodamine B assay

NCI/ADR-RES [16] = format: functional; settings: Homo sapiens, time 48 hrs
Description: Cytostatic activity against human NCI/ADR-RES cells assessed as total growth inhibition measured after 48 hrs by sulforhodamine B assay

MDA-MB-435 = format: functional; settings: Homo sapiens, time 48 hrs
Description: Cytostatic activity against human MDA-MB-435 cells assessed as total growth inhibition measured after 48 hrs by sulforhodamine B assay

CAKI-1 = settings: Homo sapiens, CAKI-1, 48 h, read-out: LC50
Description: Cytotoxicity activity against human CAKI-1 cells assessed as reduction in cell growth measured after 48 hrs by sulforhodamine B assay

SK-OV-3 [17] = settings: Homo sapiens, SK-OV-3, 48 h, read-out: LC50
Description: Cytotoxicity activity against human SK-OV-3 cells assessed as reduction in cell growth measured after 48 hrs by sulforhodamine B assay

NCI-H522 [18] = format: functional; settings: Homo sapiens, time 48 hrs
Description: Growth inhibition of human NCI-H522 cells measured after 48 hrs by sulforhodamine B assay

OVCAR-4 [19] = format: functional; settings: Homo sapiens, time 48 hrs
Description: Growth inhibition of human OVCAR-4 cells measured after 48 hrs by sulforhodamine B assay

SK-MEL-5 [20] = settings: Homo sapiens, SK-MEL-5, 48 h, read-out: LC50
Description: Cytotoxicity activity against human SK-MEL-5 cells assessed as reduction in cell growth measured after 48 hrs by sulforhodamine B assay

SW-620 [21] = format: functional; settings: Homo sapiens, time 48 hrs
Description: Cytostatic activity against human SW620 cells assessed as total growth inhibition measured after 48 hrs by sulforhodamine B assay

M14 [22] = format: functional; settings: Homo sapiens, time 48 hrs
Description: Growth inhibition of human M14 cells measured after 48 hrs by sulforhodamine B assay

SF-295 = format: functional; settings: Homo sapiens, time 48 hrs
Description: Cytostatic activity against human SF-295 cells assessed as total growth inhibition measured after 48 hrs by sulforhodamine B assay

UACC-62 [23] = format: functional; settings: Homo sapiens, time 48 hrs
Description: Cytostatic activity against human UACC-62 cells assessed as total growth inhibition measured after 48 hrs by sulforhodamine B assay

SK-MEL-28 = format: functional; settings: Homo sapiens, time 48 hrs
Description: Growth inhibition of human SK-MEL-28 cells measured after 48 hrs by sulforhodamine B assay

Malme-3M [24] = format: functional; settings: Homo sapiens, time 48 hrs
Description: Cytostatic activity against human Malme-3M cells assessed as total growth inhibition measured after 48 hrs by sulforhodamine B assay

HT-29 = settings: Homo sapiens, HT-29, 48 h, read-out: LC50
Description: Cytotoxicity activity against human HT-29 cells assessed as reduction in cell growth measured after 48 hrs by sulforhodamine B assay

OVCAR-5 [25] = settings: Homo sapiens, OVCAR-5, 48 h, read-out: LC50
Description: Cytotoxicity activity against human OVCAR-5 cells assessed as reduction in cell growth measured after 48 hrs by sulforhodamine B assay

OVCAR-4 [26] = format: functional; settings: Homo sapiens, time 48 hrs; remark: listed apart in the source
Description: Cytostatic activity against human OVCAR-4 cells assessed as total growth inhibition measured after 48 hrs by sulforhodamine B assay

KM12 [27] = settings: Homo sapiens, KM12, 48 h, read-out: LC50
Description: Cytotoxicity activity against human KM12 cells assessed as reduction in cell growth measured after 48 hrs by sulforhodamine B assay

Hs-578T [28] = format: functional; settings: Homo sapiens, time 48 hrs
Description: Growth inhibition of human Hs-578T cells measured after 48 hrs by sulforhodamine B assay

IGROV-1 [29] = format: functional; settings: Homo sapiens, time 48 hrs; remark: listed apart in the source
Description: Growth inhibition of human IGROV-1 cells measured after 48 hrs by sulforhodamine B assay

T47D = format: functional; settings: Homo sapiens, time 48 hrs
Description: Cytostatic activity against human T47D cells assessed as total growth inhibition measured after 48 hrs by sulforhodamine B assay

SF-539 = format: functional; settings: Homo sapiens, time 48 hrs
Description: Growth inhibition of human SF-539 cells measured after 48 hrs by sulforhodamine B assay

TK-10 [30] = format: functional; settings: Homo sapiens, time 48 hrs; remark: listed apart in the source
Description: Cytostatic activity against human TK-10 cells assessed as total growth inhibition measured after 48 hrs by sulforhodamine B assay

HL-60(TB) = format: functional; settings: Homo sapiens, time 48 hrs
Description: Growth inhibition of human HL-60(TB) cells measured after 48 hrs by sulforhodamine B assay

Hs-578T [31] = format: functional; settings: Homo sapiens, time 48 hrs; remark: listed apart in the source
Description: Cytostatic activity against human Hs-578T cells assessed as total growth inhibition measured after 48 hrs by sulforhodamine B assay

CCRF-CEM = format: functional; settings: Homo sapiens, time 48 hrs
Description: Growth inhibition of human CCRF-CEM cells measured after 48 hrs by sulforhodamine B assay

Hs-578T [32] = settings: Homo sapiens, 48 h, read-out: LC50
Description: Cytotoxicity activity against human Hs-578T cells assessed as reduction in cell growth measured after 48 hrs by sulforhodamine B assay

MDA-MB-468 = format: functional; settings: Homo sapiens, time 48 hrs
Description: Cytostatic activity against human MDA-MB-468 cells assessed as total growth inhibition measured after 48 hrs by sulforhodamine B assay

UACC-62 [33] = settings: Homo sapiens, UACC-62, 48 h, read-out: LC50
Description: Cytotoxicity activity against human UACC-62 cells assessed as reduction in cell growth measured after 48 hrs by sulforhodamine B assay

SK-MEL-2 = format: functional; settings: Homo sapiens, time 48 hrs
Description: Cytostatic activity against human SK-MEL-2 cells assessed as total growth inhibition measured after 48 hrs by sulforhodamine B assay

NCI/ADR-RES [34] = settings: Homo sapiens, 48 h, read-out: LC50
Description: Cytotoxicity activity against human NCI/ADR-RES cells assessed as reduction in cell growth measured after 48 hrs by sulforhodamine B assay

M14 [35] = settings: Homo sapiens, M14, 48 h, read-out: LC50
Description: Cytotoxicity activity against human M14 cells assessed as reduction in cell growth measured after 48 hrs by sulforhodamine B assay

COLO 205 = settings: Homo sapiens, COLO 205, 48 h, read-out: LC50
Description: Cytotoxicity activity against human COLO 205 cells assessed as reduction in cell growth measured after 48 hrs by sulforhodamine B assay

SMILES: CCOC(=O)c1ccc(N/N=C/c2cn(-c3ccc(S(N)(=O)=O)cc3)nc2-c2ccc(C)cc2)cc1
- TGI (SK-OV-3 [1]): > 100 µM
- TGI (SR): 2650 nM
- TGI (SN12C): 58.6 µM
- TGI (OVCAR-5 [2]): 20 µM
- CC50 (HCT-116 [3]): 54.2 µM
- TGI (HOP-62): 6.55 µM
- GI50 (MCF7): 2440 nM
- CC50 (MDA-MB-231 [4]): 58 µM
- CC50 (SW-620 [5]): > 100 µM
- TGI (HCT-116 [6]): 10.6 µM
- TGI (MDA-MB-231 [7]): 9.13 µM
- GI50 (TK-10 [8]): 24.5 µM
- TGI (IGROV-1 [9]): 25.9 µM
- GI50 (KM12 [10]): 2100 nM
- GI50 (SK-MEL-5 [11]): 2990 nM
- GI50 (MDA-MB-231 [12]): 2560 nM
- CC50 (DU-145): > 100 µM
- TGI (SK-MEL-5 [13]): 10.2 µM
- TGI (UACC-257): 37 µM
- TGI (SF-268): 34.2 µM
- TGI (HCC 2998): 4.23 µM
- CC50 (NCI-H522 [14]): > 100 µM
- GI50 (U-251): 4.23 µM
- CC50 (K562): > 100 µM
- GI50 (SNB-75): 10.1 µM
- TGI (NCI-H23): 3.26 µM
- TGI (A498): 31.8 µM
- TGI (OVCAR-3): 7.27 µM
- GI50 (RPMI-8226): 3.24 µM
- CC50 (Malme-3M [15]): 62.5 µM
- TGI (NCI/ADR-RES [16]): 10.9 µM
- TGI (MDA-MB-435): 8.96 µM
- CC50 (CAKI-1): > 100 µM
- CC50 (SK-OV-3 [17]): > 100 µM
- GI50 (NCI-H522 [18]): 2070 nM
- GI50 (OVCAR-4 [19]): 7.08 µM
- CC50 (SK-MEL-5 [20]): 40.2 µM
- TGI (SW-620 [21]): 15.6 µM
- GI50 (M14 [22]): 1750 nM
- TGI (SF-295): 24.8 µM
- TGI (UACC-62 [23]): 21.5 µM
- GI50 (SK-MEL-28): 4.5 µM
- TGI (Malme-3M [24]): 23.4 µM
- CC50 (HT-29): > 100 µM
- CC50 (OVCAR-5 [25]): 63.6 µM
- TGI (OVCAR-4 [26]): 71.5 µM
- CC50 (KM12 [27]): 10.6 µM
- GI50 (Hs-578T [28]): 2760 nM
- GI50 (IGROV-1 [29]): 5.13 µM
- TGI (T47D): > 100 µM
- GI50 (SF-539): 2550 nM
- TGI (TK-10 [30]): > 100 µM
- GI50 (HL-60(TB)): 3.05 µM
- TGI (Hs-578T [31]): 27.2 µM
- GI50 (CCRF-CEM): 3.82 µM
- CC50 (Hs-578T [32]): > 100 µM
- TGI (MDA-MB-468): 16 µM
- CC50 (UACC-62 [33]): 59.8 µM
- TGI (SK-MEL-2): 40.6 µM
- CC50 (NCI/ADR-RES [34]): > 100 µM
- CC50 (M14 [35]): 7.31 µM
- CC50 (COLO 205): > 100 µM
